Measurements published in the supplement of paper PMC10307832.

Assays:
Assay in all cases: relative viability (nuclei count vs DMSO), 5 days (fraction); higher = more cells survive
[1] = compound: C1CC1C(=O)NC2=NNC3=C2C=CC(=C3)C4=CC(=CC=C4)C(=O)NC5CC5 [XMD13-2] + Nc1ncn([C@H]2C[C@H](O)[C@@H](CO)O2)c(=O)n1 [Decitabine] (partner 2 µM)
Method in brief: (§1)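 Lung cancer cell lines were seeded in 1536-well plates and dosed by pin tool the next day, with either a single drug or a fixed anchor-drug dose combined with five library-drug doses (not always all listed) spaced in √10 steps. Five days later, one step fixed the cells and stained their nuclei (final 0.05% Triton X-100, 1% formaldehyde, 1 ug/ml Hoechst), and nuclei were counted on 4× images. Relative viability is the nuclei count in treated wells divided by the count in vehicle wells, and each value is the median of duplicate plates.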

[2] = compound: Cc1ccc(C(=O)Nc2cccc(C(F)(F)F)c2)cc1Nc1cncc(C(N)=O)c1 [ALW-II-49-7] + C[C@]1(O)C[C@@H](c2nc(-c3ccc4ccc(-c5ccccc5)nc4c3)c3c(N)nccn32)C1 [Linsitinib] (partner 1 µM)
Method in brief: as §1

[3] = compound: C1CC1C(=O)NC2=NNC3=C2C=CC(=C3)C4=CC(=CC=C4)C(=O)NC5CC5 [XMD13-2] + Cc1nc(Nc2ncc(C(=O)Nc3c(C)cccc3Cl)s2)cc(N2CCN(CCO)CC2)n1 [Dasatinib] (partner 0.075 µM)
Method in brief: as §1

[4] = compound: C1CC1C(=O)NC2=NNC3=C2C=CC(=C3)C4=CC(=CC=C4)C(=O)NC5CC5 [XMD13-2] + CS(=O)(=O)N1CCN(Cc2cc3nc(-c4cccc5[nH]ncc45)nc(N4CCOCC4)c3s2)CC1 [Pictilisib] (partner 1 µM)
Method in brief: as §1

Question: What does the source list for UMC-11?
Answer: relative viability ([1]; first compound 0.05 µM): 0.62; relative viability ([1]; first compound 0.1581 µM): 0.585; relative viability ([1]; first compound 0.5 µM): 0.793; relative viability ([1]; first compound 1.581 µM): 0.625; relative viability ([1]; first compound 5 µM): 0.579; relative viability ([2]; first compound 0.08 µM): 0.989; relative viability ([2]; first compound 0.253 µM): 0.902; relative viability ([2]; first compound 2.53 µM): 1.12; relative viability ([2]; first compound 8 µM): 1.04; relative viability ([3]; first compound 0.05 µM): 0.55; relative viability ([3]; first compound 0.1581 µM): 0.428; relative viability ([3]; first compound 0.5 µM): 0.477; relative viability ([3]; first compound 1.581 µM): 0.505; relative viability ([3]; first compound 5 µM): 0.453; relative viability ([4]; first compound 0.05 µM): 0.943; relative viability ([4]; first compound 0.1581 µM): 0.8; relative viability ([4]; first compound 0.5 µM): 0.704; relative viability ([4]; first compound 1.581 µM): 0.803; relative viability ([4]; first compound 5 µM): 0.71
